Test results: PubChem BioAssay (NCI)
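96-well plates; 48 h exposure; 5 concentrations. Endpoints by linear interpolation between flanking doses. Not reached: highest tested concentration assigned. Here, GI50 denotes the concentration required for 50% inhibition of growth. At the TGI there is no net growth.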

How the values were obtained:
Test in all cases: inhibition of tumour cell growth, NCI panel, 48 h
BT-549 breast = system: BT-549 breast
DU-145 prostate = system: DU-145 prostate
EKVX NSCLC = system: EKVX NSCLC
HCT-15 colon = system: HCT-15 colon
LXFL 529 NSCLC = system: LXFL 529 NSCLC
MCF7 breast = system: MCF7 breast
NCI-H226 lung = system: NCI-H226 lung
NCI-H460 lung = system: NCI-H460 lung
SF-268 CNS = system: SF-268 CNS
SNB-78 CNS = system: SNB-78 CNS

## CCN(CC)C(=S)[S][Bi]([S]C(=S)N(CC)CC)[S]C(=S)N(CC)CC
BT-549 breast
  GI50: 203 nM
  TGI: 384 nM
DU-145 prostate
  GI50: 1280 nM
  TGI: 2.59 µM
EKVX NSCLC
  GI50: 282 nM
  TGI: 0.732 µM
HCT-15 colon
  GI50: 164 nM
  TGI: 0.348 µM
LXFL 529 NSCLC
  GI50: 142 nM
  TGI: 0.275 µM
MCF7 breast
  GI50: 119 nM
  TGI: 0.349 µM
NCI-H226 lung
  GI50: 2070 nM
  TGI: 4.18 µM
NCI-H460 lung
  GI50: 1440 nM
  TGI: 3.07 µM
SF-268 CNS
  GI50: 455 nM
  TGI: 1.77 µM
SNB-78 CNS
  GI50: 598 nM
  TGI: 2.13 µM

## CCCCCCCCCCCCCCCCCC(=O)Nc1ccn(C2OC(CO)C(O)C2O)c(=O)n1 (stereo not drawn)
BT-549 breast
  TGI: > 91500 nM
DU-145 prostate
  TGI: > 100 µM
EKVX NSCLC
  TGI: > 100 µM
HCT-15 colon
  TGI: > 100 µM
LXFL 529 NSCLC
  TGI: > 100 µM
MCF7 breast
  TGI: > 100 µM
NCI-H226 lung
  TGI: > 100 µM
NCI-H460 lung
  TGI: > 100 µM
SF-268 CNS
  TGI: > 100 µM
SNB-78 CNS
  TGI: > 100 µM

## O=C(NC(=O)c1ccccc1[N+](=O)[O-])Nc1ccc(Oc2ncc(Cl)cn2)c(C(F)(F)F)c1
DU-145 prostate
  TGI: > 100 µM
EKVX NSCLC
  TGI: > 100 µM
HCT-15 colon
  TGI: > 38.1 µM
LXFL 529 NSCLC
  TGI: > 43.9 µM
MCF7 breast
  TGI: > 52.2 µM
NCI-H226 lung
  TGI: 1.39 µM
NCI-H460 lung
  TGI: > 20.7 µM
SF-268 CNS
  TGI: 38.4 µM
SNB-78 CNS
  TGI: > 100 µM

## NNC(=O)C(=O)N/N=C(\CCC(=O)Nc1ccc(Cl)cc1)Cc1nc2ccccc2s1
EKVX NSCLC
  TGI: > 100 µM
HCT-15 colon
  TGI: > 100 µM
LXFL 529 NSCLC
  TGI: > 100 µM
NCI-H226 lung
  TGI: > 100 µM
NCI-H460 lung
  TGI: > 100 µM
SF-268 CNS
  TGI: > 100 µM
SNB-78 CNS
  TGI: > 100 µM

## O=C(CCC(=O)C1CCC/C1=N/O)Nc1ccc(Cl)cc1 (stereo not drawn)
EKVX NSCLC
  TGI: > 100 µM
HCT-15 colon
  TGI: > 100 µM
LXFL 529 NSCLC
  TGI: > 100 µM
NCI-H226 lung
  TGI: > 100 µM
NCI-H460 lung
  TGI: > 100 µM
SF-268 CNS
  TGI: > 100 µM
SNB-78 CNS
  TGI: > 100 µM
